Values joined by “and” are separate entries in the source; they are usually repeats but may differ in a detail not shown here. Equal entries are not always repeated.
Columns and labels:
Format in all cases: cell-based
Parameters in all cases: GPCRome screening signal at PTGIR / GPCRome screening signal at PTH1R / GPCRome screening signal at PTH2R / GPCRome screening signal at QRFP / GPCRome screening signal at RXFP2 / GPCRome screening signal at RXFP3 / GPCRome screening signal at RXFP4 / GPCRome screening signal at S1PR2 / GPCRome screening signal at S1PR3 / GPCRome screening signal at S1PR4 / GPCRome screening signal at S1PR5 / GPCRome screening signal at SCTR / GPCRome screening signal at SSTR2 / GPCRome screening signal at SSSTR / GPCRome screening signal at SSTR4 / GPCRome screening signal at SSTR5 / GPCRome screening signal at SUCNR1 / GPCRome screening signal at TA1 / GPCRome screening signal at TAAR2 / GPCRome screening signal at TAAR5 / GPCRome screening signal at TAAR6 / GPCRome screening signal at TAAR8 / GPCRome screening signal at TACR1 / GPCRome screening signal at TACR2 / GPCRome screening signal at TACR3 / GPCRome screening signal at TBXA2R / GPCRome screening signal at TSHR / GPCRome screening signal at UTS2R / GPCRome screening signal at VIPR2 / GPCRome screening signal at GPR68 no V2 Tail / GPCRome screening signal at GRM2 / GPCRome screening signal at GRM3: reference not given here
[1] = target: T1, 320 non-olfactory GPCRs (Homo sapiens, UniProt Q14832); settings: receptor GRM3
T1 construct: expressed in transfected cells; host or cells: HTLA cells
T1 sequence (Q14832 23-879): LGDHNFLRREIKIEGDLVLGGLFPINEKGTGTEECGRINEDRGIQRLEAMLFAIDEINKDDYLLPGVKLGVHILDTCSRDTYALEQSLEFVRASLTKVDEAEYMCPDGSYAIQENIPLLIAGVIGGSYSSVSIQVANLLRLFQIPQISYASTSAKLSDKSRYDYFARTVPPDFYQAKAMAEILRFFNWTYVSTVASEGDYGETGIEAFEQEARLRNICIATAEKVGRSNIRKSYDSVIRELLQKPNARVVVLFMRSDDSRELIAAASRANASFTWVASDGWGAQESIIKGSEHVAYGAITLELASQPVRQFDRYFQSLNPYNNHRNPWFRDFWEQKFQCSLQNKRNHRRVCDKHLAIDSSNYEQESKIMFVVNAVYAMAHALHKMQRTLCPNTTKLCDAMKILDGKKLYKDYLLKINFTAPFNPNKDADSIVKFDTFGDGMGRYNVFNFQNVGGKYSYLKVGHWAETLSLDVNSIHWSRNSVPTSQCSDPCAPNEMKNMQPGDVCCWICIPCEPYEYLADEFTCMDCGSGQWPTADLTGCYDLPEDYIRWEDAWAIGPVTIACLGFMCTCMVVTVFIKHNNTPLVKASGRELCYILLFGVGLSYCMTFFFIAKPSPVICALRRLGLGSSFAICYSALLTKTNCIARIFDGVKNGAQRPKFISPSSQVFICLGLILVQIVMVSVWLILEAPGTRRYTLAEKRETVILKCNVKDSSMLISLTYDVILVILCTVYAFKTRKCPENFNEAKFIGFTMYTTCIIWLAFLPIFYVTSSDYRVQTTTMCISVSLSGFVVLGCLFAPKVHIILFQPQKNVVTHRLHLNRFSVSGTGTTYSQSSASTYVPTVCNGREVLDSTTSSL

[2] = target: 320 non-olfactory GPCRs (Homo sapiens, UniProt P30874); settings: receptor SSTR2
Chain of 320 non-olfactory GPCRs (Homo sapiens, UniProt P30874) (P30874 whole entry): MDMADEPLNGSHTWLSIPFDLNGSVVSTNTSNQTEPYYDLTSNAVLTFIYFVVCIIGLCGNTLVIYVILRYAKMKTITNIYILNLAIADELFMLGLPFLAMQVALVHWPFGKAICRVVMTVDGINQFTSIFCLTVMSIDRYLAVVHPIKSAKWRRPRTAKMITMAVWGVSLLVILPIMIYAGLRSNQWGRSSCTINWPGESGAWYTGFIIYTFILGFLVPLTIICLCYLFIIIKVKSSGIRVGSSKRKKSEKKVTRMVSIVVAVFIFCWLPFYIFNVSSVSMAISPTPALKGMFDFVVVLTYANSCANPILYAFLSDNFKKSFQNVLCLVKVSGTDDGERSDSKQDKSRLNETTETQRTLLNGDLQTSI

[3] = target: T2, 320 non-olfactory GPCRs (Homo sapiens, UniProt P16473); settings: receptor TSHR
T2 construct: expressed in transfected cells; host or cells: HTLA cells
T2 sequence (P16473 21-764): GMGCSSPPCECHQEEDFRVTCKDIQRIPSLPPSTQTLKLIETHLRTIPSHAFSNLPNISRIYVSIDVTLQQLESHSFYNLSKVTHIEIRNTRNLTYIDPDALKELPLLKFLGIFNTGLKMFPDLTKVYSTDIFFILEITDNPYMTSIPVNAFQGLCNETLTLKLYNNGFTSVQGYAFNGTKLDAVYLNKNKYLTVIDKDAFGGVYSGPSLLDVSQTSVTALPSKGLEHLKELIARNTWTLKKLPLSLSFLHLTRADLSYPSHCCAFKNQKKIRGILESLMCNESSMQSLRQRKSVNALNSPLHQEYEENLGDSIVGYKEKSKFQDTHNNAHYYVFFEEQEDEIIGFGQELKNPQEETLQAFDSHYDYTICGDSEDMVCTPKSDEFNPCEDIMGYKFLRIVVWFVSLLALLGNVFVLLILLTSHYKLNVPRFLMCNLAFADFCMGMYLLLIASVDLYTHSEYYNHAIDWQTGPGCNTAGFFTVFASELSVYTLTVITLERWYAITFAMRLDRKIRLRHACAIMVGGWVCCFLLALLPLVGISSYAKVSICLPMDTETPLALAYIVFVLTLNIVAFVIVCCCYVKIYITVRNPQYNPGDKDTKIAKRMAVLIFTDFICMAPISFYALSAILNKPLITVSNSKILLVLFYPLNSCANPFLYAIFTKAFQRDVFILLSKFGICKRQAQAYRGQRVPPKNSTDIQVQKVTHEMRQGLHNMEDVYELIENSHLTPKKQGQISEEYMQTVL

[4] = target: T3, 320 non-olfactory GPCRs (Homo sapiens, UniProt Q9HBX9); settings: receptor RXFP1
T3 construct: expressed in transfected cells; host or cells: HTLA cells
T3 sequence (Q9HBX9 whole entry): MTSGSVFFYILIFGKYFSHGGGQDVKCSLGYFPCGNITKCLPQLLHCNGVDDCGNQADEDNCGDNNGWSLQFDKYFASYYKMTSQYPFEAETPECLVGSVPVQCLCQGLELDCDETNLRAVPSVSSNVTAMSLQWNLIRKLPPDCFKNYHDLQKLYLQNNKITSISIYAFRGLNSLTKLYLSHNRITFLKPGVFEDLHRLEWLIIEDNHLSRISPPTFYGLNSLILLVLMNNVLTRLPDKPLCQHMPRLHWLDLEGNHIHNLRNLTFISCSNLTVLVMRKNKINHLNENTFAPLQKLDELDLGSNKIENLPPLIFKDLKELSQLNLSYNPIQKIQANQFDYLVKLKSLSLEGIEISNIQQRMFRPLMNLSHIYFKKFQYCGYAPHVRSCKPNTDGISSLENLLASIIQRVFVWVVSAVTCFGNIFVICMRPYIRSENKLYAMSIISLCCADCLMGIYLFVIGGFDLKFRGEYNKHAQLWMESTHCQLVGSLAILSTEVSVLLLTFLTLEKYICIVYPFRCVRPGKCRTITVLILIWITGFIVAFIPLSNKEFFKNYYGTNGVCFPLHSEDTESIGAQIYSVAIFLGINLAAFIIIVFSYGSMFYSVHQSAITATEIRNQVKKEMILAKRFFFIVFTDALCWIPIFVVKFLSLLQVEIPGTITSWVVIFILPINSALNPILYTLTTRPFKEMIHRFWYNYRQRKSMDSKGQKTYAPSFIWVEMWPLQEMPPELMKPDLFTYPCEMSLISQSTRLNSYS

[5] = Fig_5f, single replicate values
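Wherever GPCRome agonism screen response is given: fold over basal response of each receptor without drug.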

Row | Structure (SMILES) | GPCRome screening signal at GRM3 [1, 5] | GPCRome screening signal at SSTR2 [2, 5] | GPCRome screening signal at TSHR [3, 5] | GPCRome screening signal at RXFP1 [4, 5] | GPCRome agonism screen response ([1]; replicate values, Fig_4g) | GPCRome agonism screen response ([2]; replicate values, Fig_4g) | GPCRome agonism screen response ([3]; replicate values, Fig_4g) | GPCRome agonism screen response ([4]; replicate values, Fig_4g)
1 | CCOc1ccccc1CCC(C)NCC1(O)CCCCC1.Cl (racemic) [Fig_5f] | 0.4086 and 1.387 and 0.6216 and 1.325 | 1.092 and 1.759 and 1.157 and 0.8246 | 0.6627 and 1.386 and 0.8068 and 1.0471 | 1.526 and 1.245 and 1.665 and 0.7058 | – | – | – | –
2 | CCOc1cccc2cc(C(C)NCC3(O)CCCCC3)oc12 (centres unmarked) [O4LE6] | – | – | – | – | 0.5635 and 0.5272 and 0.9256 and 1.931 | 0.9255 and 0.9659 and 1.077 and 0.7883 | 0.633 and 1.167 and 0.8187 and 0.6635 | 1.294 and 0.8675 and 1.5976 and 1.234

Reference: publication PMC7044277 (Nature Communications, 2020)
